Experimental findings from US20220289685A1, “ANTIMALARIAL HEXAHYDROPYRIMIDINE ANALOGUES” (UCB BIOPHARMA SRL, priority 2019, published 2022) are described below.

Structures can show the parent of a compound that is named as a salt.

By IC50 is commonly meant the concentration that inhibits the measured activity by half.

In one test the test system is Plasmodium falciparum 3D7 strain. Put plainly: P. falciparum 3D7 asexual blood stage assay (SYBR green readout). The test is classed as cell-based. The note with it: Plasmodium falciparum, 3D7, Erythrocyte, 72 h. Summed up: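 P. falciparum 3D7 in A+ erythrocytes (5% haematocrit, 0.5% parasitaemia) exposed 72 h at 37 °C under 1% O2/3% CO2 to 20-point 1.5-fold titrations, 50,000–15 nM in 0.5% DMSO. SYBR green lysis overnight, fluorescence 485/528 nm; normalized to mefloquine and DMSO, EC50 from biphasic two-site fit.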
The molecule `C[C@@H]1C[C@H](N2C(=N)N[C@](C)(c3cccc(NC(=O)c4cccc(C#N)c4F)c3Cl)CC2=O)CCO1` (relative stereo) [Example 73, N-(2-Chloro-3-{(4S)-2-imino-4-methyl-1-[(2R*,4R*)-2-methyl-tetrahydropyran-4-yl]-6-oxo-hexahydropyrimidin-4-yl}phenyl)-3-cyano-2-fluorobenzamide hydrochloride] registered an IC50 of 0.006 µM.

On to `C[C@@H]1C[C@H](N2C(=N)N[C@](C)(c3cccc(NC(=O)c4cncc(C#N)c4)c3Cl)CC2=O)CCO1` (relative stereo) [Example 74, N-(2-Chloro-3-{(4S)-2-imino-4-methyl-1-[(2R*,4R*)-2-methyl-tetrahydropyran-4-yl]-6-oxo-hexahydropyrimidin-4-yl}phenyl)-5-cyanopyridine-3-carboxamide hydrochloride], for which the IC50 stood at 0.109 µM.

Molecule `C[C@@H]1C[C@H](N2C(=N)N[C@](C)(c3cccc(NC(=O)c4cc(C#N)ccn4)c3Cl)CC2=O)CCO1` (relative stereo) [Example 75, N-(2-Chloro-3-{(4S)-2-imino-4-methyl-1-[(2R*,4R*)-2-methyl-tetrahydropyran-4-yl]-6-oxo-hexahydropyrimidin-4-yl}phenyl)-4-cyanopyridine-2-carboxamide hydrochloride] showed a concentration for half-maximal inhibition (IC50) of 0.02 µM.

Consider `C[C@@H]1C[C@H](N2C(=N)N[C@](C)(c3cccc(NC(=O)c4cc(C#N)ccc4F)c3Cl)CC2=O)CCO1` (relative stereo) [Example 76, N-(2-Chloro-3-{(4S)-2-imino-4-methyl-1-{(2R*,4R*)-2-methyl-tetrahydropyran-4-yl]-6-oxo-hexahydropyrimidin-4-yl}phenyl)-5-cyano-2-fluorobenzamide hydrochloride], for which the half-inhibitory concentration (IC50) is 0.011 µM.

Regarding `C[C@@H]1C[C@H](N2C(=N)N[C@](C)(c3cccc(NC(=O)c4cc(Cl)cc(C#N)c4)c3Cl)CC2=O)CCO1` (relative stereo) [Example 77, 3-Chloro-N-(2-chloro-3-{(4S)-2-imino-4-methyl-1-[(2R*,4R*)-2-methyltetrahydropyran-4-yl]-6-oxo-hexahydropyrimidin-4-yl}phenyl)-5-cyanobenzamide hydrochloride], half-maximal inhibition (IC50) was put at 0.007 µM.

With `Cc1ccnc(C(=O)Nc2cccc([C@]3(C)CC(=O)N([C@@H]4CCO[C@H](C)C4)C(=N)N3)c2Cl)n1` (relative stereo) [Example 78, N-(2-Chloro-3-{(4S)-2-imino-4-methyl-1-[(2R*,4R*)-2-methyl-tetrahydropyran-4-yl]-6-oxo-hexahydropyrimidin-4-yl}phenyl)-4-methylpyrimidine-2-carboxamide hydrochloride], the IC50 is 0.027 µM.

The molecule `COc1ccc2ccccc2c1C(=O)Nc1cccc([C@]2(C)CC(=O)N([C@@H]3CCO[C@H](C)C3)C(=N)N2)c1Cl` (relative stereo) [Example 79, N-(2-Chloro-3-{(4S)-2-imino-4-methyl-1-[(2R*,4R*)-2-methyl-tetrahydropyran-4-yl]-6-oxo-hexahydropyrimidin-4-yl]phenyl)-2-methoxynaphthalene-1-carboxamide trifluoroacetic acid salt] returned an IC50 of 0.061 µM.

Turning to `C[C@@H]1C[C@H](N2C(=N)N[C@](C)(c3cccc(NC(=O)c4ccc(F)cc4C(F)(F)F)c3Cl)CC2=O)CCO1` (relative stereo) [Example 80, N-(2-Chloro-3-{(4S)-2-imino-4-methyl-1-[(2R*,4R*)-2-methyl-tetrahydropyran-4-yl]-6-oxo-hexahydropyrimidin-4-yl}phenyl)-4-fluoro-2-(trifluoromethyl)-benzamide trifluoroacetic acid salt], it took 0.061 µM to reach half-maximal inhibition (IC50).

As to `C[C@@H]1C[C@H](N2C(=N)N[C@](C)(c3cccc(NC(=O)c4ccccc4S(C)(=O)=O)c3Cl)CC2=O)CCO1` (relative stereo) [Example 81, N-(2-Chloro-3-{(4S)-2-imino-4-methyl-1-[(2R*,4R*)-2-methyl-tetrahydropyran-4-yl]-6-oxo-hexahydropyrimidin-4-yl}phenyl)-2-(methylsulfonyl)benzamide trifluoroacetic acid salt], it took 0.182 µM to reach half-maximal inhibition (IC50).

With `Cc1ccncc1C(=O)Nc1cccc([C@]2(C)CC(=O)N([C@@H]3CCO[C@H](C)C3)C(=N)N2)c1Cl` (relative stereo) [Example 82, N-(2-Chloro-3-{(4S)-2-imino-4-methyl-1-[(2R*,4R*)-2-methyl-tetrahydropyran-4-yl]-6-oxo-hexahydropyrimidin-4-yl}phenyl)-4-methylpyridine-3-carboxamide trifluoroacetic acid salt], the IC50 was found to be 0.035 µM.

As for `C[C@@H]1C[C@H](N2C(=N)N[C@](C)(c3cccc(NC(=O)c4cc(C(F)(F)F)ccc4F)c3Cl)CC2=O)CCO1` (relative stereo) [Example 83, N-(2-Chloro-3-{(4S)-2-imino-4-methyl-1-[(2R*,4R*)-2-methyl-tetrahydropyran-4-yl]-6-oxo-hexahydropyrimidin-4-yl}phenyl)-2-fluoro-5-(trifluoromethyl)-benzamide trifluoroacetic acid salt], inhibition was half-maximal at 0.018 µM (IC50).

As to `C[C@@H]1CC(N2C(=N)N[C@](C)(c3cccc(NC(=O)c4cc(Cl)ccc4OC(F)F)c3Cl)CC2=O)CCO1` (relative stereo) [Example 84, 5-Chloro-N-(2-chloro-3-{(4S)-2-imino-4-methyl-1-[(2R*,4R*)-2-methyltetrahydropyran-4-yl]-6-oxo-hexahydropyrimidin-4-yl]phenyl)-2-(difluoromethoxy)benzamide trifluoroacetic acid salt], the IC50 worked out at 0.037 µM.

In turn, `COc1ccc(S(C)(=O)=O)cc1C(=O)Nc1cccc([C@]2(C)CC(=O)N([C@@H]3CCO[C@H](C)C3)C(=N)N2)c1Cl` (relative stereo) [Example 85, N-(2-Chloro-3-{(4S)-2-imino-4-methyl-1-[(2R*,4R*)-2-methyl-tetrahydropyran-4-yl]-6-oxo-hexahydropyrimidin-4-yl}phenyl)-2-methoxy-5-(methylsulfonyl)-benzamide trifluoroacetic acid salt] gave an IC50 of 0.076 µM.

Molecule `C[C@@H]1C[C@H](N2C(=N)N[C@](C)(c3cccc(NC(=O)c4nc5ccccc5nc4C(F)(F)F)c3Cl)CC2=O)CCO1` (relative stereo) [Example 88, N-(2-Chloro-3-{(4S)-2-imino-4-methyl-1-[(2R*,4R*)-2-methyl-tetrahydropyran-4-yl]-6-oxo-hexahydropyrimidin-4-yl]phenyl)-3-(trifluoromethyl)quinoxaline-2-carboxamide trifluoroacetic acid salt] gave a 50% inhibitory concentration (IC50) of 0.046 µM.

`C[C@@H]1C[C@H](N2C(=N)N[C@](C)(c3cccc(NC(=O)c4ccncc4C(F)(F)F)c3Cl)CC2=O)CCO1` (relative stereo) [Example 89, N-(2-Chloro-3-{(4S)-2-imino-4-methyl-1-[(2R*,4R*)-2-methyl-tetrahydropyran-4-yl]-6-oxo-hexahydropyrimidin-4-yl}phenyl)-3-(trifluoromethyl)pyridine-4-carboxamide trifluoroacetic acid salt] yielded an IC50 of 0.373 µM.

`C[C@@H]1C[C@H](N2C(=N)N[C@](C)(c3cccc(NC(=O)c4cccc(-n5cccn5)c4)c3Cl)CC2=O)CCO1` (relative stereo) [Example 90, N-(2-Chloro-3-{(4S)-2-imino-4-methyl-1-[(2R*,4R*)-2-methyl-tetrahydropyran-4-yl]-6-oxo-hexahydropyrimidin-4-yl}phenyl)-3-(pyrazol-1-yl)benzamide trifluoroacetic acid salt] showed an IC50 of 0.023 µM.

As to `C[C@@H]1C[C@H](N2C(=N)N[C@](C)(c3cccc(NC(=O)c4cncc(N(C)C)n4)c3Cl)CC2=O)CCO1` (relative stereo) [Example 91, N-(2-Chloro-3-{(4S)-2-imino-4-methyl-1-[(2R*,4R*)-2-methyl-tetrahydropyran-4-yl]-6-oxo-hexahydropyrimidin-4-yl]phenyl)-6-(dimethylamino)pyrazine-2-carboxamide hydrochloride], the IC50 came to 0.116 µM.

Regarding `C[C@@H]1C[C@H](N2C(=N)N[C@](C)(c3cccc(NC(=O)c4ncc(Cl)cn4)c3Cl)CC2=O)CCO1` (relative stereo) [Example 92, 5-Chloro-N-(2-chloro-3-{(4S)-2-imino-4-methyl-1-[(2R*,4R*)-2-methyltetrahydropyran-4-yl]-6-oxo-hexahydropyrimidin-4-yl]phenyl)-pyrimidine-2-carboxamide hydrochloride], half-maximal inhibition (IC50) was put at 0.028 µM.

In the case of `C[C@@H]1C[C@H](N2C(=N)N[C@](C)(c3cccc(NC(=O)c4cc(N5CCOCC5)ccn4)c3Cl)CC2=O)CCO1` (relative stereo) [Example 93, N-(2-Chloro-3-{(4S)-2-imino-4-methyl-1-[(2R*,4R*)-2-methyl-tetrahydropyran-4-yl]-6-oxo-hexahydropyrimidin-4-yl]phenyl)-4-(morpholin-4-yl)pyridine-2-carboxamide hydrochloride], half-maximal inhibition (IC50) required 0.047 µM.

Staying with this test, now noted: Plasmodium falciparum, Erythrocyte; P. falciparum 3D7 in human erythrocytes, 72 h incubation, SYBR green fluorescence; read-out: IC50.
As for `C[C@@H]1C[C@H](N2C(=N)N[C@](C)(c3cccc(NC(=O)c4cccc5c4OCO5)c3Cl)CC2=O)CCO1` (relative stereo) [Example 86, N-(2-Chloro-3-{(4S)-2-imino-4-methyl-1-[(2R*,4R*)-2-methyl-tetrahydropyran-4-yl]-6-oxo-hexahydropyrimidin-4-yl]phenyl)-1,3-benzodioxole-4-carboxamide trifluoroacetic acid salt], the half-inhibitory concentration (IC50) worked out at 0.01 µM.

Regarding `COc1ccc(F)cc1C(=O)Nc1cccc([C@]2(C)CC(=O)N([C@@H]3CCO[C@H](C)C3)C(=N)N2)c1Cl` (relative stereo) [Example 87, N-(2-Chloro-3-{(4S)-2-imino-4-methyl-1-[(2,R*,4R*)-2-methyl-tetrahydropyran-4-yl]-6-oxo-hexahydropyrimidin-4-yl}phenyl)-5-fluoro-2-methoxybenzamide trifluoroacetic acid salt], the IC50 was determined as 0.018 µM.
